ChEMBL document CHEMBL5614422, “Design, synthesis and biological evaluation of N-salicyloyl tryptamine derivatives as multifunctional neuroprotectants for the treatment of ischemic stroke” (Eur J Med Chem, 2024)
≈ marks a conversion by molar mass, not a printed value.

Tested on: not listed separately
Test: Cytotoxicity against mouse HT-22 cells assessed as cell viability incubated for 24 hrs by CCK-8 method
Format: toxicity, cell-based
Settings: not given

| SMILES | IC50 at 24 h [µM] |
| --- | --- |
| Cc1ccc(C(=O)NCCc2c[nH]c3ccc(N(C)C)cc23)c(O)c1 | > 100 |

Tested on: HT-22
Test: Neuroprotective activity against OGD/R induced cell damage in mouse HT-22 cells assessed as cell viability at 10 uM measured after 24 hrs by MTT assay (reference value: 69.01 +/-2.90%)
Format: functional
Settings: read-out: Activity

| SMILES | viability at 10 µM [%] |
| --- | --- |
| CC1=NN(c2ccccc2)C(=O)C1 [EDARAVONE] | 80.9 |
| Cc1ccc(C(=O)NCCc2c[nH]c3ccc(N(C)C)cc23)c(O)c1 | 92.7 |

Tested on: not listed separately
Test: Cytotoxicity against mouse BV-2 cells assessed as cell viability incubated for 24 hrs by CCK-8 method
Format: toxicity, cell-based
Settings: not given

| SMILES | IC50 at 24 h [µM] |
| --- | --- |
| Cc1ccc(C(=O)NCCc2c[nH]c3ccc(N(C)C)cc23)c(O)c1 | > 100 |

Tested on: not listed separately
Test: Antioxidant activity assessed as trolox equivalent of ORAC radical scavenging activity at 0.125 to 2 uM by AAPH based automatic microplate reader analysis
Format: functional
Settings: dose 0.125-2 µM

| SMILES | Activity |
| --- | --- |
| CC1=NN(c2ccccc2)C(=O)C1 [EDARAVONE] | 2.8 |

Tested on: HT-22
Test: Antioxidant activity against OGD/R induced damage in mouse HT-22 cells assessed as decrease in proportion of mitochondrial depolarized cells at 1 uM by JC-1 fluorescence based flow cytometry analysis (reference value: 91.7%)
Format: functional
Set-up: scale not given: the % may be the effect or the level left
Settings: not given

| SMILES | Activity [%] |
| --- | --- |
| Cc1ccc(C(=O)NCCc2c[nH]c3ccc(N(C)C)cc23)c(O)c1 | 81.7 |

Tested on: HT-22
Test: Antioxidant activity against OGD/R induced damage in mouse HT-22 cells assessed as decrease in proportion of mitochondrial depolarized cells at 5 uM by JC-1 fluorescence based flow cytometry analysis (reference value: 91.7%)
Format: functional
Set-up: scale not given: the % may be the effect or the level left
Settings: not given

| SMILES | Activity [%] |
| --- | --- |
| Cc1ccc(C(=O)NCCc2c[nH]c3ccc(N(C)C)cc23)c(O)c1 | 54 |

Tested on: HT-22
Test: Antioxidant activity against OGD/R induced damage in mouse HT-22 cells assessed as decrease in proportion of mitochondrial depolarized cells at 10 uM by JC-1 fluorescence based flow cytometry analysis (reference value: 91.7%)
Format: functional
Set-up: scale not given: the % may be the effect or the level left
Settings: not given

| SMILES | Activity [%] |
| --- | --- |
| CC1=NN(c2ccccc2)C(=O)C1 [EDARAVONE] | 67.9 |
| Cc1ccc(C(=O)NCCc2c[nH]c3ccc(N(C)C)cc23)c(O)c1 | 49.2 |

Tested on: HT-22
Test: Anti-apoptotic activity in OGD/R mouse HT-22 cells assessed as viable cells at 1 uM by annexin V-FITC and PI staining based flow cytometry analysis (reference value: 83.09%)
Format: functional
Settings: read-out: Activity

| SMILES | viability at 1 µM [%] |
| --- | --- |
| Cc1ccc(C(=O)NCCc2c[nH]c3ccc(N(C)C)cc23)c(O)c1 | 88 |

Tested on: HT-22
Test: Anti-apoptotic activity in OGD/R mouse HT-22 cells assessed as viable cells at 5 uM by annexin V-FITC and PI staining based flow cytometry analysis (reference value: 83.09%)
Format: functional
Settings: read-out: Activity

| SMILES | viability at 5 µM [%] |
| --- | --- |
| Cc1ccc(C(=O)NCCc2c[nH]c3ccc(N(C)C)cc23)c(O)c1 | 93.7 |

Tested on: HT-22
Test: Anti-apoptotic activity in OGD/R mouse HT-22 cells assessed as viable cells at 10 uM by annexin V-FITC and PI staining based flow cytometry analysis (reference value: 83.09%)
Format: functional
Settings: read-out: Activity

| SMILES | viability at 10 µM [%] |
| --- | --- |
| CC1=NN(c2ccccc2)C(=O)C1 [EDARAVONE] | 92.1 |
| Cc1ccc(C(=O)NCCc2c[nH]c3ccc(N(C)C)cc23)c(O)c1 | 93.6 |

Tested on: HT-22
Test: Anti-apoptotic activity in OGD/R mouse HT-22 cells assessed as early apoptotic cells at 1 uM by annexin V-FITC and PI staining based flow cytometry analysis (reference value: 9.51%)
Format: functional
Settings: not given

| SMILES | Activity [%] |
| --- | --- |
| Cc1ccc(C(=O)NCCc2c[nH]c3ccc(N(C)C)cc23)c(O)c1 | 5.95 |

Tested on: HT-22
Test: Anti-apoptotic activity in OGD/R mouse HT-22 cells assessed as early apoptotic cells at 5 uM by annexin V-FITC and PI staining based flow cytometry analysis (reference value: 9.51%)
Format: functional
Settings: not given

| SMILES | Activity [%] |
| --- | --- |
| Cc1ccc(C(=O)NCCc2c[nH]c3ccc(N(C)C)cc23)c(O)c1 | 2.34 |

Tested on: HT-22
Test: Anti-apoptotic activity in OGD/R mouse HT-22 cells assessed as early apoptotic cells at 10 uM by annexin V-FITC and PI staining based flow cytometry analysis (reference value: 9.51%)
Format: functional
Settings: not given

| SMILES | Activity [%] |
| --- | --- |
| CC1=NN(c2ccccc2)C(=O)C1 [EDARAVONE] | 1.78 |
| Cc1ccc(C(=O)NCCc2c[nH]c3ccc(N(C)C)cc23)c(O)c1 | 2.01 |

Tested on: HT-22
Test: Anti-apoptotic activity in OGD/R mouse HT-22 cells assessed as late apoptotic cells at 1 uM by annexin V-FITC and PI staining based flow cytometry analysis (reference value: 7.26%)
Format: functional
Settings: not given

| SMILES | Activity [%] |
| --- | --- |
| Cc1ccc(C(=O)NCCc2c[nH]c3ccc(N(C)C)cc23)c(O)c1 | 5.84 |

Tested on: HT-22
Test: Anti-apoptotic activity in OGD/R mouse HT-22 cells assessed as late apoptotic cells at 5 uM by annexin V-FITC and PI staining based flow cytometry analysis (reference value: 7.26%)
Format: functional
Settings: not given

| SMILES | Activity [%] |
| --- | --- |
| Cc1ccc(C(=O)NCCc2c[nH]c3ccc(N(C)C)cc23)c(O)c1 | 3.67 |

Tested on: HT-22
Test: Anti-apoptotic activity in OGD/R mouse HT-22 cells assessed as late apoptotic cells at 10 uM by annexin V-FITC and PI staining based flow cytometry analysis (reference value: 7.26%)
Format: functional
Settings: not given

| SMILES | Activity [%] |
| --- | --- |
| CC1=NN(c2ccccc2)C(=O)C1 [EDARAVONE] | 5.39 |
| Cc1ccc(C(=O)NCCc2c[nH]c3ccc(N(C)C)cc23)c(O)c1 | 3.37 |

Tested on: HT-22
Test: Anti-apoptotic activity in OGD/R mouse HT-22 cells assessed as necrotic cells at 1 uM by annexin V-FITC and PI staining based flow cytometry analysis (reference value: 0.14%)
Format: functional
Settings: not given

| SMILES | Activity [%] |
| --- | --- |
| Cc1ccc(C(=O)NCCc2c[nH]c3ccc(N(C)C)cc23)c(O)c1 | 0.15 |

Tested on: HT-22
Test: Anti-apoptotic activity in OGD/R mouse HT-22 cells assessed as necrotic cells at 5 uM by annexin V-FITC and PI staining based flow cytometry analysis (reference value: 0.14%)
Format: functional
Settings: not given

| SMILES | Activity [%] |
| --- | --- |
| Cc1ccc(C(=O)NCCc2c[nH]c3ccc(N(C)C)cc23)c(O)c1 | 0.33 |

Tested on: HT-22
Test: Anti-apoptotic activity in OGD/R mouse HT-22 cells assessed as necrotic cells at 10 uM by annexin V-FITC and PI staining based flow cytometry analysis (reference value: 0.14%)
Format: functional
Settings: not given

| SMILES | Activity [%] |
| --- | --- |
| CC1=NN(c2ccccc2)C(=O)C1 [EDARAVONE] | 0.72 |
| Cc1ccc(C(=O)NCCc2c[nH]c3ccc(N(C)C)cc23)c(O)c1 | 1.06 |

Tested on: not listed separately
Test: Permeability of the compound by PAMPA method
Format: ADME
Settings: read-out: permeability

| SMILES | Papp [×10⁻⁶ cm/s] |
| --- | --- |
| CN1CCN(C2=Nc3cc(Cl)ccc3Nc3ccccc32)CC1 [CLOZAPINE] | 8.34 |
| Cc1ccc(C(=O)NCCc2c[nH]c3ccc(N(C)C)cc23)c(O)c1 | 8.29 |

Tested on: not listed separately
Test: Drug concentration in male Sprague-Dawley rat plasma at 60 mg/kg, ip measured after 0.5 hrs by LC-MS analysis
Format: ADME, organism-based
Settings: not given

| SMILES | concentration at 0.5 h [ng/mL] |
| --- | --- |
| Cc1ccc(C(=O)NCCc2c[nH]c3ccc(N(C)C)cc23)c(O)c1 | 4120 |

Tested on: not listed separately
Test: Drug concentration in male Sprague-Dawley rat Cerebrospinal fluid at 60 mg/kg, ip measured after 0.5 hrs by LC-MS analysis
Format: ADME, organism-based
Settings: read-out: Ct

| SMILES | concentration at 0.5 h [ng/mL] |
| --- | --- |
| Cc1ccc(C(=O)NCCc2c[nH]c3ccc(N(C)C)cc23)c(O)c1 | 53 |

Tested on: not listed separately
Test: Drug concentration in male Sprague-Dawley rat plasma at 60 mg/kg, ip measured after 2 hrs by LC-MS analysis
Format: ADME, organism-based
Settings: not given

| SMILES | concentration at 2 h [ng/mL] |
| --- | --- |
| Cc1ccc(C(=O)NCCc2c[nH]c3ccc(N(C)C)cc23)c(O)c1 | 633 |

Tested on: not listed separately
Test: Drug concentration in male Sprague-Dawley rat Cerebrospinal fluid at 60 mg/kg, ip measured after 2 hrs by LC-MS analysis
Format: ADME, organism-based
Settings: read-out: Ct

| SMILES | concentration at 2 h [ng/mL] |
| --- | --- |
| Cc1ccc(C(=O)NCCc2c[nH]c3ccc(N(C)C)cc23)c(O)c1 | 30 |

Tested on: not listed separately
Test: Drug concentration in male Sprague-Dawley rat plasma at 60 mg/kg, ip measured after 4 hrs by LC-MS analysis
Format: ADME, organism-based
Settings: not given

| SMILES | concentration at 4 h [ng/mL] |
| --- | --- |
| Cc1ccc(C(=O)NCCc2c[nH]c3ccc(N(C)C)cc23)c(O)c1 | 186 |

Tested on: not listed separately
Test: Drug concentration in male Sprague-Dawley rat Cerebrospinal fluid at 60 mg/kg, ip measured after 4 hrs by LC-MS analysis
Format: ADME, organism-based
Settings: read-out: Ct

| SMILES | concentration at 4 h [ng/mL] |
| --- | --- |
| Cc1ccc(C(=O)NCCc2c[nH]c3ccc(N(C)C)cc23)c(O)c1 | 20 |

Tested on: not listed separately
Test: Aqueous solubility of the compound incubated for 72 hrs under shaking condition by HPLC analysis
Format: physicochemical
Settings: not given

| SMILES | solubility thermodynamic at 72 h [µg/mL] |
| --- | --- |
| CC1=NN(c2ccccc2)C(=O)C1 [EDARAVONE] | 1840 (≈ 10.6 mM) |
| Cc1ccc(C(=O)NCCc2c[nH]c3ccc(N(C)C)cc23)c(O)c1.Cl | 2300 |
| Cc1ccc(C(=O)NCCc2c[nH]c3ccc(N(C)C)cc23)c(O)c1 | 40 (≈ 0.119 mM) |

Tested on: not listed separately
Test: Half life in 12 hrs fasted male Sprague-Dawley rat at 50 mg/kg measured upto 48 hrs by LC-MS/MS analysis
Format: ADME, organism-based
Settings: in vivo

| SMILES | half-life [h] |
| --- | --- |
| Cc1ccc(C(=O)NCCc2c[nH]c3ccc(N(C)C)cc23)c(O)c1.Cl | 3.96 |
| Cc1ccc(C(=O)NCCc2c[nH]c3ccc(N(C)C)cc23)c(O)c1 | 4.56 |

Tested on: not listed separately
Test: Acute toxicity in Kunming mouse assessed as effect on body weight at 500 mg/kg, ip measured after 14 days
Format: organism-based
Settings: in vivo, 336 h, time 14 day

| SMILES | Activity |
| --- | --- |
| Cc1ccc(C(=O)NCCc2c[nH]c3ccc(N(C)C)cc23)c(O)c1.Cl | Non-Toxic |

Tested on: not listed separately
Test: Acute toxicity in Kunming mouse assessed as effect on heart at 500 mg/kg, ip measured after 14 days by H and E staining based analysis
Format: organism-based
Settings: in vivo, 336 h, time 14 day

| SMILES | Activity |
| --- | --- |
| Cc1ccc(C(=O)NCCc2c[nH]c3ccc(N(C)C)cc23)c(O)c1.Cl | Non-Toxic |

Tested on: not listed separately
Test: Acute toxicity in Kunming mouse assessed as effect on liver at 500 mg/kg, ip measured 14 days by H and E staining based analysis
Format: organism-based
Settings: in vivo, 336 h, time 14 day

| SMILES | Activity |
| --- | --- |
| Cc1ccc(C(=O)NCCc2c[nH]c3ccc(N(C)C)cc23)c(O)c1.Cl | Non-Toxic |

Tested on: not listed separately
Test: Acute toxicity in Kunming mouse assessed as effect on spleen at 500 mg/kg, ip measured after 14 days by H and E staining based analysis
Format: organism-based
Settings: in vivo, 336 h, time 14 day

| SMILES | Activity |
| --- | --- |
| Cc1ccc(C(=O)NCCc2c[nH]c3ccc(N(C)C)cc23)c(O)c1.Cl | Non-Toxic |

Tested on: not listed separately
Test: Acute toxicity in Kunming mouse assessed as effect on lung at 500 mg/kg, ip measured after 14 days by H and E staining based analysis
Format: organism-based
Settings: in vivo, 336 h, time 14 day

| SMILES | Activity |
| --- | --- |
| Cc1ccc(C(=O)NCCc2c[nH]c3ccc(N(C)C)cc23)c(O)c1.Cl | Non-Toxic |

Tested on: not listed separately
Test: Acute toxicity in Kunming mouse assessed as effect on kidney at 500 mg/kg, ip measured after 14 days by H and E staining based analysis
Format: organism-based
Settings: in vivo, 336 h, time 14 day

| SMILES | Activity |
| --- | --- |
| Cc1ccc(C(=O)NCCc2c[nH]c3ccc(N(C)C)cc23)c(O)c1.Cl | Non-Toxic |
